# Data taken from patent US20250277066A1, “Substituted Pyridine-2,6-Bis(Phenylenephenolate) Complexes with Enhanced Solubility that are Useful as Catalyst Components for Olefin Polymerization” (ExxonMobil Chemical Patents Inc., priority 2022, published 2025).
# Several values for one entry are separate records, joined by “and”; a condition that tells them apart may be missing. Equal entries are not always repeated.
# Tests used:
# [1] = Solubility of complexes in isohexane (Method 1 or Method 2); format: physicochemical; details: ambient temperature (20° C.-25° C.), mass includes residual solvent
# Procedure: Solubility studies for all other complexes were performed using material as synthesized. […] Solvents used were sparged with nitrogen (30-60 minutes) and dried over 3 Å mole sieves. Unless stated otherwise all measurements were performed at ambient temperature (20° C.-25° C.).
# General procedure: Solubility was determined using the following Method 1 or Method 2. For calculations, a value of 0.672 g/mL was used for the density of isohexane.
# Method 1: A tared vial was loaded with a small amount of the complex (actual mass recorded, including any residual solvent as noted above, typically 5-30 mg). Then a small stir bar (8 mm) was added. Solvent was then added and the mixture was stirred rapidly (1000 rpm). […] This process was repeated until either a clear solution was obtained (no visible solids or murkiness) or the vial was full. As the mixture approached homogeneity (i.e., few remaining solids observed) the volume of the solvent additions was kept small (<1 mL) to minimize excess beyond the solvent required to achieve homogeneity. The stir bar was then removed and the mass of the mixture was measured. If a clear solution had formed then the solubility of the complex was calculated as a single value, based on the mass of complex and the amount of solvent added to achieve a homogeneous solution. If the mixture remained heterogeneous (visible solids or murky), then the value reported is given as being “less than” the calculated value.
# Method 2: A measured amount of complex (actual mass recorded, including any residual solvent as noted above) was added to a tared vial, followed by a stir bar. Dry isohexanes were added in small portions and the resulting mixture was stirred after each portion of isohexanes. If a clear solution had formed then the solubility was reported as a range, the lower bound of solubility calculated using the total solvent added to achieve a homogenous solution and the upper bound of solubility calculated using the total solvent measured prior to achieving a homogenous solution. If the mixture remained heterogeneous (visible solids or murky), the upper bound of solubility was calculated using the total solvent added. Formula used to calculate solubility are listed below. Solvent present in the complex is included in the mass and formula weight of the complexes.
# [2] = Propylene polymerization (PP) in small-scale autoclave reactors: yield, quench time, catalyst activity; details: activator A
# Source text: Solutions of the pre-catalysts were made using toluene (ExxonMobil Chemical—anhydrous, stored under N2) (98%) or isohexane (ExxonMobil Chemical—polymerization grade, and purified as described below). Pre-catalyst solutions were typically 0.25 mmol/L.
# Solvents, polymerization grade toluene and/or isohexanes were supplied by ExxonMobil Chemical Co. and are purified by passing through a series of columns: two 500 cc Oxyclear cylinders in series from Labclear (Oakland, Calif), followed by two 500 cc columns in series packed with dried […] (8-12 mesh; Aldrich Chemical Company), and two 500 cc columns in series packed with dried 5 Å mole sieves (8-12 mesh; Aldrich Chemical Company).
# Polymerization grade propylene (C3) was used and further purified by passing it through a series of columns: 2250 cc Oxiclear cylinder from Labclear followed by a 2250 cc column packed with 3 Å mole sieves (8-12 mesh; Aldrich Chemical Company), then two 500 cc columns in series packed with 5 Å mole sieves (8-12 mesh; Aldrich Chemical Company), then a 500 cc column packed with Selexsorb CD (BASF), and finally a 500 cc column packed with Selexsorb COS (BASF).
# Activation of the pre-catalysts was either by dimethylanilinium tetrakisperfluorophenylborate (Boulder Scientific or Albemarle Corp; Act ID=A) or is (hydrogenated tallow alkyl)methylammonium tetrakis(pentafluorophenyl)borate supplied as a 10 wt % solution in methylcyclohexane (Boulder Scientific; Act ID=B). Activators were typically used as a 0.25 mmol/L solution in toluene or isohexane.
# Tri-n-octylaluminum (TnOAl or TNOA, Neat, AkzoNobel) was also used as a scavenger prior to introduction of the activator and pre-catalyst into the reactor. TNOA was typically used as a 5 mmol/L solution in toluene or isohexane.
# Polymerizations were conducted in an inert atmosphere (N2) drybox using autoclaves equipped with an external heater for temperature control, glass inserts (internal volume of reactor=23.5 mL for C2 and C2/C8; 22.5 mL for C3 runs), septum inlets, regulated supply of nitrogen, ethylene and propylene, and equipped with disposable PEEK mechanical stirrers (800 RPM). The autoclaves were prepared by purging with dry nitrogen at 110° C. or 115° C. for 5 hours and then at 25° C. for 5 hours.
# The reactor was prepared as described above, then heated to 40° C., and then purged with propylene gas at atmospheric pressure. Toluene or isohexanes, liquid propylene (1.0 mL) and scavenger (TNOA, 0.5 μmol) were added via syringe. The reactor was then brought to process temperature (70° C. or 100° C.) while stirring at 800 RPM. The activator solution, followed by the pre-catalyst solution, were injected via syringe to the reactor at process conditions. Reactor temperature was monitored and typically maintained within +/−1° C. Polymerizations were halted by addition of approximately 50 psi compressed dry air gas mixture to the autoclaves for approximately 30 seconds. The polymerizations were quenched based on a predetermined pressure loss (maximum quench value) or for a maximum of 30 minutes. The reactors were cooled and vented. The polymers were isolated after the solvent was removed in-vacuo. The actual quench time (s) is reported as quench time (s). Yields reported include total weight of polymer and residual catalyst. Catalyst activity is reported as grams of polymer per mmol transition metal compound per hour of reaction time (g/mmol·hr).
# Polymerization results are collected in Tables 2 below. “Ex #” stands for example number. Example numbers starting with a “C” are comparative examples. “Cat ID” identifies the pre-catalyst used in the experiment. Corresponding numbers identifying the pre-catalyst (also referred to as pre-catalyst, catalyst, complex or compound) are located in the synthetic experimental section. T(° C.) is the polymerization temperature which was typically maintained within +/−1° C. “Yield” is polymer yield, and is not corrected for catalyst residue. […]
# [3] = Rapid GPC of polymers (Mn, Mw, Mz, PDI); format: physicochemical; set-up: Mn / Mw / Mz: unit not given here
# Procedure: For analytical testing, polymer sample solutions were prepared by dissolving polymer in 1,2,4-trichlorobenzene (TCB, 99+% purity from Sigma-Aldrich) containing 2,6-di-tert-butyl-4-methylphenol (BHT, 99% from Aldrich) at 165° C. in a shaker oven for approximately 3 hours. The typical concentration of polymer in solution was between 0.1 to 0.9 mg/mL with a BHT concentration of 1.25 mg BHT/mL of TCB. Samples were cooled to 135° C. for testing.
# High temperature size exclusion chromatography was performed using an automated “Rapid GPC” system as described in U.S. Pat. Nos. 6,491,816; 6,491,823; 6,475,391; 6,461,515; 6,436,292; 6,406,632; 6,175,409; 6,454,947; 6,260,407; and 6,294,388; each of which is incorporated herein by reference. Molecular weights (weight average molecular weight (Mw), number average molecular weight (Mn) and z average molecular weight (Mz)) and molecular weight distribution (MWD=Mw/Mn), which is also sometimes referred to as the polydispersity (PDI) of the polymer, were measured by Gel Permeation Chromatography using a Symyx Technology GPC equipped with evaporative light scattering detector (ELSD) and calibrated using polystyrene standards (Polymer Laboratories: Polystyrene Calibration Kit S-M-10: Mp (peak Mw) between 5,000 and 3,390,000). Alternatively, samples were measured by Gel Permeation Chromatography using a Symyx Technology GPC equipped with dual wavelength infrared detector and calibrated using polystyrene standards (Polymer Laboratories: Polystyrene Calibration Kit S-M-10: Mp (peak Mw) between 580 and 3,039,000). […] No column spreading corrections were employed. Numerical analyses were performed using Epoch® software available from Symyx Technologies or Automation Studio software available from Freeslate. The molecular weights obtained are relative to linear polystyrene standards. Molecular weight data is reported in Table 2 under the headings Mn, Mw, Mz and PDI as defined above.
# [4] = DSC melting point of polymers (TA-Q100); format: physicochemical
# Procedure: Differential Scanning Calorimetry (DSC) measurements were performed on a TA-Q100 instrument to determine the melting point of the polymers. Samples were pre-annealed at 220° C. for 15 minutes and then allowed to cool to room temperature overnight. The samples were then heated to 220° C. at a rate of 100° C./minute and then cooled at a rate of 50° C./minute. Melting points were collected during the heating period. The results are reported in the Table 2 under the heading, Tm (° C.).
# [5] = polypropylene made with activator A at 70° C.
# [6] = polypropylene made with activator A at 70° C., Mw/Mn
# [7] = polypropylene made with activator A at 100° C.
# [8] = polypropylene made with activator A at 100° C., Mw/Mn
# [9] = polymer made with activator A, T 70 ° C.
Structure (SMILES),Solubility (s) in Isohexane [1] [µM],Solubility (s) in Isohexane (wt %) [1] [wt %],Activity ([2]; T 70° C.),Activity ([2]; T 100° C.),"Mn [3, 5]","Mw [3, 5]","Mz [3, 5]","PDI [3, 6]","Mn [3, 7]","Mw [3, 7]","Mz [3, 7]","PDI [3, 8]","Tm [4, 5]","Tm [4, 7]","Mn [3, 9]","Mw [3, 9]","Mz [3, 9]","PDI [3, 9]","Tm [4, 9] [°C]"
Cc1cc2c(c(C34CC5CC(CC(C5)C3)C4)c1)[O][Zr-]1([CH3])([CH3])[O]c3c(cc(C)cc3C34CC5CC(CC(C5)C3)C4)-c3ccccc3-c3cccc([n+]31)-c1ccccc1-2 [Complex 1],<600,<0.08,"5,668,800 g P/mmol cat • hr and 7,619,077 g P/mmol cat • hr and 6,920,571 g P/mmol cat • hr","3,931,500 g P/mmol cat • hr and 4,448,471 g P/mmol cat • hr and 2,644,800 g P/mmol cat • hr","57,753 and 64,376 and 67,290","372,797 and 502,821 and 428,075","1,464,190 and 2,141,863 and 1,753,319",6.46 and 7.81 and 6.36,"28,762 and 34,553 and 48,560","152,087 and 155,815 and 169,007","646,646 and 665,846 and 624,200",5.29 and 4.51 and 3.48,147.5 °C and 147.3 °C and 148.1 °C,145.8 °C and 147.0 °C,,,,,
Cc1cc2c(c(C34CC5CC(C)(CC(C)(C5)C3)C4)c1)[O][Hf-]1([CH3])([CH3])[O]c3c(cc(C)cc3C34CC5CC(C)(CC(C)(C5)C3)C4)-c3ccccc3-c3cc(N4CCCC4)cc([n+]31)-c1ccccc1-2 [Complex 30],,,"7,103 g P/mmol cat • hr and 6,836 g P/mmol cat • hr and 8,533 g P/mmol cat • hr","4,453 g P/mmol cat • hr and 6,707 g P/mmol cat • hr and 8,689 g P/mmol cat • hr","186,851 and 187,906 and 245,411","346,587 and 346,773 and 427,041","762,107 and 711,356 and 871,754",1.85 and 1.74,"86,554 and 106,308 and 121,006","147,732 and 177,827 and 199,815","301,600 and 354,753 and 438,188",1.71 and 1.67 and 1.65,163.3 °C and 163.5 °C and 164.8 °C,158.0 °C and 158.7 °C and 159.0 °C,,,,,
Cc1cc2[n+]3c(c1)-c1ccccc1-c1cc(C(C)(C)C)cc(C45CC6CC(CC(C6)C4)C5)c1[O][Zr-]3([CH3])([CH3])[O]c1c(cc(C(C)(C)C)cc1C13CC4CC(CC(C4)C1)C3)-c1ccccc1-2 [compound 3],,,"1,251,771 g P/mmol cat • hr",,,,,,,,,,,,"206,080","676,784","2,471,266",3.28,150.7
